Tests used:
[1] = Acute toxicity in iv dosed rat; type: organism-based; settings: in vivo
[2] = test system: Rattus norvegicus; test: Antiarrhythmic activity in iv dosed aconitine-induced rat arrhythmia model administered 3 to 5 mins prior to aconitine challenge by electrocardiographic method; type: functional
[3] = Antiarrhythmic index, ratio of LD50 for iv dosed rat to ED50 for antiarrhythmic activity in iv dosed aconitine-induced rat arrhythmia model; type: toxicity, organism-based; settings: in vivo, read-out: Ratio LD50/ED50

SMILES | LD50 [1] | ED50 [2] | selectivity ratio [3]
C=C1[C@H]2C[C@@]3([C@@H]1O)[C@@H](CC2=O)[C@@]12[C@@H](OC(=O)c4ccccc4)CC[C@@]4(C)CN(CC)[C@@H]1[C@@H]3C[C@H]42 | 41 mg/kg | 0.38 mg/kg | 108
C=C1[C@H]2C[C@@]3([C@@H]1O)[C@@H](CC2=O)[C@]12[C@@H]4C[C@H]3[C@H]1N(CC)C[C@]4(C)CC[C@@H]2O [SONGORINE] | 142 mg/kg | 7.3 mg/kg | 19
C=C1[C@H]2C[C@@]3([C@@H]1O)[C@@H](CC2=O)[C@@]12[C@@H](OC(C)=O)CC[C@@]4(C)CN(CC)[C@@H]1[C@@H]3C[C@H]42 | 150 mg/kg | 15 mg/kg | 10
C=C1[C@H]2C[C@@]3([C@@H]1OC(C)=O)[C@@H](CC2=O)[C@@]12[C@@H](OC(C)=O)CC[C@@]4(C)CN(CC)[C@@H]1[C@@H]3C[C@H]42 | 131 mg/kg | 18 mg/kg | 7.3

Source: ChEMBL document CHEMBL4152185, “Therapeutic potential of songorine, a diterpenoid alkaloid of the genus Aconitum” (Eur J Med Chem, 2018)
